Experiments:
TAS2R16 from H. griseus = assay: Calcium assay, HEK293T cells expressing H. griseus TAS2R16 with Gα16/gust44; format: cell-based, Hapalemur griseus
TAS2R16 from H. aureus = assay: Calcium assay, HEK293T cells expressing H. aureus TAS2R16 with Gα16/gust44; format: cell-based, Hapalemur aureus
TAS2R16 from P. simus = TAS2R16 from P. simus (Prolemur simus, UniProt A0A8C8ZSN9); assay: Calcium assay, HEK293T cells expressing P. simus TAS2R16 with Gα16/gust44; format: cell-based
TAS2R16 from L. catta = TAS2R16 from L. catta (Lemur catta, UniProt A0A4Y1QJW7); assay: Calcium assay, HEK293T cells expressing L. catta TAS2R16 with Gα16/gust44; format: cell-based; details: Calcium 4, mean ± s.e.m.
Chain of TAS2R16 from L. catta (A0A4Y1QJW7 1-301): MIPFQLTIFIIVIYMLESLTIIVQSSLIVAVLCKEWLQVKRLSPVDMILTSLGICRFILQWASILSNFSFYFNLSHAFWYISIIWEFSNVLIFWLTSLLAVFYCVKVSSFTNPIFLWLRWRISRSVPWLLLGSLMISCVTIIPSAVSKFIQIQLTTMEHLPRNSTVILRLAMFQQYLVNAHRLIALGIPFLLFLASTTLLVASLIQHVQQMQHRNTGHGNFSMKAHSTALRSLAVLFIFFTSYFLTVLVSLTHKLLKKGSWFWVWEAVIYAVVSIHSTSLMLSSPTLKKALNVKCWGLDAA

[1] = tested on: anc-Bamboo lemur T140A /S144L TAS2R16; assay: Calcium assay, double mutant anc-Bamboo lemur T140A/S144L (reply to referee); format: cell-based, last common ancestor (LCA) in bamboo lemurs; details: figure not shown
TAS2R16 P. simus L144S = target: T1, TAS2R16 P. simus L144S (Prolemur simus, UniProt A0A8C8ZSN9, L144S); assay: Calcium assay, single-point mutant P. simus L144S TAS2R16; format: cell-based
T1 sequence (A0A8C8ZSN9 1-301 L144S): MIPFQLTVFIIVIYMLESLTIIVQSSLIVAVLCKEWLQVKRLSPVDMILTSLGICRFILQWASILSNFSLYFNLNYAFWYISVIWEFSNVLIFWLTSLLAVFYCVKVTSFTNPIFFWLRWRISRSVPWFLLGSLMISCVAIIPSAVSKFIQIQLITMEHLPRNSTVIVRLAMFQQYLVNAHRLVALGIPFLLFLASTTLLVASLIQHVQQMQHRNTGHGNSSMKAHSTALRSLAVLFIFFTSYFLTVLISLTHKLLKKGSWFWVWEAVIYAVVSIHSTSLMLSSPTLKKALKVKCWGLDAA

[2] = tested on: TAS2R16 orthologue of Varecia variegata; set-up: method as in Itoigawa et al., [8]; details: ref Itoigawa et al., [8]; cited from earlier work
[3] = HEK293T, Gα16/gust44, Calcium 5, mean ± s.e.m.

Chain of TAS2R16 from P. simus (A0A8C8ZSN9 1-301): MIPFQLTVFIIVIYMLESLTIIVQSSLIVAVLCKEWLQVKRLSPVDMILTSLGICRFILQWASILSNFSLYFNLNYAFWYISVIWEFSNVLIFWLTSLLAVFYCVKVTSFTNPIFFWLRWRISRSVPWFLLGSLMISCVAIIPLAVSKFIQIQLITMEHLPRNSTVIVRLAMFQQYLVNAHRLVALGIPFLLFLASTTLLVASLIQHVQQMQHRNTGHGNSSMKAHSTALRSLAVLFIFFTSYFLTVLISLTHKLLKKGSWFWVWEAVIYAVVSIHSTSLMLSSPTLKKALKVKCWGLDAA

| SMILES | response of TAS2R16 to ligand (TAS2R16 from H. griseus) | response of TAS2R16 to ligand (TAS2R16 from H. aureus) | response of TAS2R16 to ligand (TAS2R16 from P. simus; at the concentrations used in the assays) | EC50 (TAS2R16 from L. catta) | Amax (maximal signal amplitude, ΔF/F) (TAS2R16 from H. griseus; [3]) | Amax (maximal signal amplitude, ΔF/F) (TAS2R16 from H. aureus; [3]) | responses of double mutant compared to single mutant (anc-Bamboo lemur S144L) [1] | EC50 (TAS2R16 P. simus L144S) | EC50 (TAS2R16 from H. aureus; HEK293T, Gα16/gust44, Calcium 4, mean ± s.e.m.) | EC50 (TAS2R16 from P. simus; HEK293T, Gα16/gust44, Calcium 4) | EC50 [2] |
| --- | --- | --- | --- | --- | --- | --- | --- | --- | --- | --- | --- |
| OC[C@H]1O[C@@H](Oc2ccc(O)cc2)[C@H](O)[C@@H](O)[C@@H]1O [arbutin] | did not show any responses | did not show any responses | did not show any responses | 2.3 ± 0.21 mM | – | – | – | – | – | – | – |
| CC(C)(C#N)O[C@@H]1O[C@H](CO)[C@@H](O)[C@H](O)[C@H]1O [linamarin] | – | – | – | – | 0.33 ± 0.031 | 0.52 ± 0.041 | – | – | – | – | – |
| OCc1ccccc1O[C@@H]1O[C@H](CO)[C@@H](O)[C@H](O)[C@H]1O [salicin] | – | – | – | 2.1 ± 0.38 mM | – | – | did not show significant reduction | 4.3 ± 0.85 mM | 6.8 ± 1.1 mM | > 40 mM | 3.8 mM |

— paper PMC8059561, “Lowered sensitivity of bitter taste receptors to β-glucosides in bamboo lemurs: an instance of parallel and adaptive functional decline in TAS2R16?” (Proceedings of the Royal Society B: Biological Sciences, 2021)
